How the values were obtained:
[1] = target: T1, serotoninergic 5-HT1A receptor (Homo sapiens, UniProt P08908); experiment: Binding assay 5-HT1A (h), [3H]8-OH-DPAT, HEK-293 cells; design: expressed in transfected cells; host or cells: HEK-293 cells; conditions: read-out: 5-HT1A
T1 sequence (P08908 1-422): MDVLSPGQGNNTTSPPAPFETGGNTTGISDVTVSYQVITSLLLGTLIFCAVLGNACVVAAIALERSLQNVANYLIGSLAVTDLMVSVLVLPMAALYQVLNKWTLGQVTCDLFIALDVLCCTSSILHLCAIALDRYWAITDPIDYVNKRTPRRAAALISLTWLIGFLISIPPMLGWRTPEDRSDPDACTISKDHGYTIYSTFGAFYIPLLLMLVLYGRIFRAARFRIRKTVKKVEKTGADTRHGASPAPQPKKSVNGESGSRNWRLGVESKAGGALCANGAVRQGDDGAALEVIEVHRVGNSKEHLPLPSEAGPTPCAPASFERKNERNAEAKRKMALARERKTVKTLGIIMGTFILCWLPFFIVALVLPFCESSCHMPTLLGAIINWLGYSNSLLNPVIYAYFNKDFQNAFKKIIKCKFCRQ
Experimental: (§1) The specific ligand binding to the receptors is defined as the difference between the total binding and the nonspecific binding determined in the presence of an excess of so unlabelled ligand.
(§2) The specific Ligand binding to the receptor is defined as the difference between total and non-specific binding determined in the presence of an excess of unlabelled ligand. The compounds were tested at a concentration of 1×10^−6 M, and scintillation counting was the method of detection of ligand binding.

[2] = target: serotoninergic 5-HT6 receptor (Homo sapiens, UniProt P50406); experiment: Binding assay 5-HT6 (h), [3H]LSD, CHO cells; design: expressed in transfected cells; host or cells: CHO cells; conditions: read-out: 5-HT6
Experimental: as §1, §2

[3] = target: serotoninergic 5-HT7 receptor (Homo sapiens, UniProt P34969); experiment: Binding assay 5-HT7 (h), [3H]LSD, CHO cells; design: expressed in transfected cells; host or cells: CHO cells; conditions: read-out: 5-HT7
Experimental: as §1, §2

adrenergic α1 receptor = experiment: Binding assay α1 (non-selective), [3H]prazosin, rat cerebral cortex; conditions: percent inhibition of control specific binding; compounds tested at 1×10^−6 M
Experimental: as §1, §2

[4] = target: serotoninergic 5-HT2A receptor (Homo sapiens, UniProt P28223); experiment: Binding assay 5-HT2A (h), [3H]ketanserin, HEK-293 cells; design: expressed in transfected cells; host or cells: HEK-293 cells; conditions: read-out: 5-HT2A
Experimental: as §1, §2

[5] = target: T2, serotonine transporter (SERT) receptor (Homo sapiens, UniProt P31645); experiment: Binding assay SERT (h), [3H]imipramine, CHO cells; conditions: read-out: SERT [%]
T2 construct: expressed in transfected cells; host or cells: CHO cells
Experimental: as §1, §2

dopaminergic D2 receptor = dopaminergic D2 receptor (Homo sapiens, UniProt P14416); experiment: Binding assay D2S (h), [3H]methyl-spiperone, HEK-293 cells; design: expressed in transfected cells; host or cells: HEK-293 cells; conditions: read-out: D2 [%]
Experimental: as §1, §2

dopaminergic D3 receptor = dopaminergic D3 receptor (Homo sapiens, UniProt P35462); experiment: Binding assay D3 (h), [3H]methyl-spiperone, CHO cells; design: expressed in transfected cells; host or cells: CHO cells; conditions: read-out: D3 [%]
Experimental: as §1, §2

serotoninergic 5-HT7 receptor, sequence (P34969 whole entry): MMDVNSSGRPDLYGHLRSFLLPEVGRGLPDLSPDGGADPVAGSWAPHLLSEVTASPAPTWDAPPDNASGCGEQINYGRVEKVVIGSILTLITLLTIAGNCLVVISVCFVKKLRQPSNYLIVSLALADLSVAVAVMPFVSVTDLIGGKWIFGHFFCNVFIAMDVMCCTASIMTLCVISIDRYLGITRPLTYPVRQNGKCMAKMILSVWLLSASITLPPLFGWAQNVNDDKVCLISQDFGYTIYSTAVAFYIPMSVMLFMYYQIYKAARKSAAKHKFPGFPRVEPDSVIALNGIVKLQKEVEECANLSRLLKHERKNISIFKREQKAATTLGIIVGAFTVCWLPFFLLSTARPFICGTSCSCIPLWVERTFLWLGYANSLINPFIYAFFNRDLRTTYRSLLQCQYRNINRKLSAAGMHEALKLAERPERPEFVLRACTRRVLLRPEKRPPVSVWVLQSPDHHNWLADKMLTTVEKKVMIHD
T2 sequence (P31645 whole entry): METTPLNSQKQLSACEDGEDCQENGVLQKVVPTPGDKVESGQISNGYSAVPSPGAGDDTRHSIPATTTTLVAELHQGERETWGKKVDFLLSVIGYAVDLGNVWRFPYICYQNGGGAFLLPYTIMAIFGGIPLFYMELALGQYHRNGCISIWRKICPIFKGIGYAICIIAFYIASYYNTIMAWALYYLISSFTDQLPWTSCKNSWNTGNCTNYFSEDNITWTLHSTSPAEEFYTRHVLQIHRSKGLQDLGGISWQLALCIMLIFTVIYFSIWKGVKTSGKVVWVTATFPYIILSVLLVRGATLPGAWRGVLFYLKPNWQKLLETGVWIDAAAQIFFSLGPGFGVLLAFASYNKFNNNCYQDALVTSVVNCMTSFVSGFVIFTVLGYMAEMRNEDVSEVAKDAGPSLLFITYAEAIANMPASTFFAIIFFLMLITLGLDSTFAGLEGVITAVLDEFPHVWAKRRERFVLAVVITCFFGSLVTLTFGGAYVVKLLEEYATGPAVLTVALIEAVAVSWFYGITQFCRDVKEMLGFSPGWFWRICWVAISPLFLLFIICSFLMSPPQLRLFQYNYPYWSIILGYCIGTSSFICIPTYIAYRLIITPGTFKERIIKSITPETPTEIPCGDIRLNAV
dopaminergic D2 receptor, sequence (P14416 1-414 isoform P14416-2): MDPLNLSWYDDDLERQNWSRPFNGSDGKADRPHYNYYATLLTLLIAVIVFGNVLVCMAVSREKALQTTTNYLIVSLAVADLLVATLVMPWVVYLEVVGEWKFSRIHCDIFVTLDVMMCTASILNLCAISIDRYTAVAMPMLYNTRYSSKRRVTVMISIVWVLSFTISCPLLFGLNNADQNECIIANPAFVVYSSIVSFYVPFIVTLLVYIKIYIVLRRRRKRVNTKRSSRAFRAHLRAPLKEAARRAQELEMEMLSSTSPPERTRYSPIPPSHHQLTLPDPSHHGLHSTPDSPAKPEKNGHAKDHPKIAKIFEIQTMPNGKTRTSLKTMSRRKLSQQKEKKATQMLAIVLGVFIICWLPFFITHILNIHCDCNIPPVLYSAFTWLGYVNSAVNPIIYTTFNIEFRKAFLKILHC
dopaminergic D3 receptor, sequence (P35462 whole entry): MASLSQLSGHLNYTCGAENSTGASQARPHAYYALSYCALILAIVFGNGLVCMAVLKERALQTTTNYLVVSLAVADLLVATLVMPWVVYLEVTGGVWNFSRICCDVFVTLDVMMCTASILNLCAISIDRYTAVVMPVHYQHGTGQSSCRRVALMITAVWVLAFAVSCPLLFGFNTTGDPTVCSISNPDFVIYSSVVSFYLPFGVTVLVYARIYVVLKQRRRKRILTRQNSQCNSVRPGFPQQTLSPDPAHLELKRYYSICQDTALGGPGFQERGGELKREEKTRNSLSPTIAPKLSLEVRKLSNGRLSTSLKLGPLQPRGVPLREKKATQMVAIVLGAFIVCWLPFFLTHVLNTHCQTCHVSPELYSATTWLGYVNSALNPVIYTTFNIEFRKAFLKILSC
serotoninergic 5-HT2A receptor, sequence (P28223 whole entry): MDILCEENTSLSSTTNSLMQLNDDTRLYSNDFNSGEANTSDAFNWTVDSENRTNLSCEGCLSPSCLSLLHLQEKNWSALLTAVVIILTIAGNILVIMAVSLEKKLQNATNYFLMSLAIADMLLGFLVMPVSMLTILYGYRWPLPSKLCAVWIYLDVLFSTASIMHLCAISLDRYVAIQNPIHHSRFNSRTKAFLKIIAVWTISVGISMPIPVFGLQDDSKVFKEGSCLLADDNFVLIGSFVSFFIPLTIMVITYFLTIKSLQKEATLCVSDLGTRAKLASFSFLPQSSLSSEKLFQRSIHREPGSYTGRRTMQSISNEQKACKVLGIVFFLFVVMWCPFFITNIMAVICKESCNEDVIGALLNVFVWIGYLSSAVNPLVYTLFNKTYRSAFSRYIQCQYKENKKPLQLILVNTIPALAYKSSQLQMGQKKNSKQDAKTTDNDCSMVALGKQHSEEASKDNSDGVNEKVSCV
serotoninergic 5-HT6 receptor, sequence (P50406 whole entry): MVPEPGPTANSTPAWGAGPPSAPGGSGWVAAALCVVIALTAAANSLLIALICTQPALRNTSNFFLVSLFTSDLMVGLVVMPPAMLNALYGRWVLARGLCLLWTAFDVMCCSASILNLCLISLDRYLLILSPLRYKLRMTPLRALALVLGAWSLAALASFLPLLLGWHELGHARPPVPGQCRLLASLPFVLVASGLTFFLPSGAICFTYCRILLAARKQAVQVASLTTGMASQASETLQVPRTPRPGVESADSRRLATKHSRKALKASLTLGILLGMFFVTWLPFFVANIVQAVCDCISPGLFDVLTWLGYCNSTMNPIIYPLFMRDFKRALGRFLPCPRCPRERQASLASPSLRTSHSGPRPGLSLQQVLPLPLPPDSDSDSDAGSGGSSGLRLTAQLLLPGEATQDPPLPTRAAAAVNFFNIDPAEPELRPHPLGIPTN

## O=S(=O)(NCCCN1CCN(c2nsc3ccccc23)CC1)c1cc2ccc(Cl)cc2s1 [Compound 264, N-[3-[4-(1,2-Benzothiazol-3-yl)piperazin-1-yl]propyl]-6-chlorobenzothiophene-2-sulphonamide]
[1]
  inhibition at 1 µM: 54%
[2]
  inhibition at 1 µM: 63%
[3]
  inhibition at 1 µM: 75%
Adrenergic α1 receptor
  α1 [%]: 53%
[4]
  inhibition at 1 µM: 105%
[5]
  inhibition at 1 µM: -18%
Dopaminergic D2 receptor
  inhibition at 1 µM: 87%
Dopaminergic D3 receptor
  inhibition at 1 µM: 65%

## O=S(=O)(NCCCCN1CCN(c2noc3ccccc23)CC1)c1ccc(F)c(Cl)c1 [Compound 276, N-[4-[4-(1,2-Benzoxazol-3-yl)piperazin-1-yl]butyl]-3-chloro-4-fluorobenzenesulphonamide]
[1]
  inhibition at 1 µM: 51%
[2]
  inhibition at 1 µM: 78%
[3]
  inhibition at 1 µM: 87%
Adrenergic α1 receptor
  α1 [%]: 95%
[4]
  inhibition at 1 µM: 87%
[5]
  inhibition at 1 µM: 3%
Dopaminergic D2 receptor
  inhibition at 1 µM: 95%
Dopaminergic D3 receptor
  inhibition at 1 µM: 69%

## O=S(=O)(NCCCCN1CCN(c2cccc3c2OCCO3)CC1)c1cccc2ccccc12 [Compound 385, N-[4-[4-(2,3-Dihydro-1,4-benzodioxin-5-yl)piperazin-1-yl]butyl]naphthalene-1-sulphonamide]
[1]
  inhibition at 1 µM: 103%
[2]
  inhibition at 1 µM: 10%
[3]
  inhibition at 1 µM: 99%
Adrenergic α1 receptor
  α1 [%]: 96%
[4]
  inhibition at 1 µM: 77%
[5]
  inhibition at 1 µM: 6%
Dopaminergic D2 receptor
  inhibition at 1 µM: 75%
Dopaminergic D3 receptor
  inhibition at 1 µM: 89%

## O=S(=O)(NCCCCN1CCN(c2cccc3c2OCCO3)CC1)c1ccc(Cl)s1 [Compound 398, 5-Chloro-N-[4-[4-(2,3-dihydro-1,4-benzodioxin-5-yl)piperazin-1-yl]butyl]thiophene-2-sulphonamide]
[1]
  inhibition at 1 µM: 107%
[2]
  inhibition at 1 µM: 3%
[3]
  inhibition at 1 µM: 97%
Adrenergic α1 receptor
  α1 [%]: 97%
[4]
  inhibition at 1 µM: 38%
[5]
  inhibition at 1 µM: -7%
Dopaminergic D2 receptor
  inhibition at 1 µM: 73%
Dopaminergic D3 receptor
  inhibition at 1 µM: 90%

## COc1cccc(S(=O)(=O)NCCCCN2CCN(c3nsc4ccccc34)CC2)c1 [Compound 232, N-[4-[4-(1,2-Benzothiazol-3-yl)piperazin-1-yl]butyl]-3-methoxybenzenesulphonamide]
[1]
  inhibition at 1 µM: 89%
[2]
  inhibition at 1 µM: 76%
[3]
  inhibition at 1 µM: 89%
Adrenergic α1 receptor
  α1 [%]: 94%
[4]
  inhibition at 1 µM: 100%
[5]
  inhibition at 1 µM: 13%
Dopaminergic D2 receptor
  inhibition at 1 µM: 92%
Dopaminergic D3 receptor
  inhibition at 1 µM: 89%

## O=S(=O)(NCCCCN1CCN(c2nsc3ccccc23)CC1)c1ccc2cn[nH]c2c1 [Compound 244, N-[4-[4-(1,2-Benzothiazol-3-yl)piperazin-1-yl]butyl]-1H-indazole-6-sulphonamide]
[1]
  inhibition at 1 µM: 69%
[2]
  inhibition at 1 µM: 81%
[3]
  inhibition at 1 µM: 98%
Adrenergic α1 receptor
  α1 [%]: 98%
[4]
  inhibition at 1 µM: 96%
[5]
  inhibition at 1 µM: 19%
Dopaminergic D2 receptor
  inhibition at 1 µM: 105%
Dopaminergic D3 receptor
  inhibition at 1 µM: 91%

## COc1cccc(S(=O)(=O)NCCCN2CCC(c3noc4cc(F)ccc34)CC2)c1 [Compound 332, N-[3-[4-(6-Fluoro-1,2-benzoxazol-3-yl)piperidin-1-yl]propyl]-3-methoxybenzenesulphonamide]
[1]
  inhibition at 1 µM: 71%
[2]
  inhibition at 1 µM: 95%
[3]
  inhibition at 1 µM: 64%
Adrenergic α1 receptor
  α1 [%]: 107%
[4]
  inhibition at 1 µM: 97%
[5]
  inhibition at 1 µM: 18%
Dopaminergic D2 receptor
  inhibition at 1 µM: 83%
Dopaminergic D3 receptor
  inhibition at 1 µM: 96%

## O=S(=O)(NCCCCN1CCN(c2nsc3ccccc23)CC1)c1cccc(Br)c1 [Compound 230, N-[4-[4-(1,2-Benzothiazol-3-yl)piperazin-1-yl]butyl]-3-bromobenzenesulphonamide]
[1]
  inhibition at 1 µM: 85%
[2]
  inhibition at 1 µM: 85%
[3]
  inhibition at 1 µM: 101%
Adrenergic α1 receptor
  α1 [%]: 98%
[4]
  inhibition at 1 µM: 87%
[5]
  inhibition at 1 µM: 13%
Dopaminergic D2 receptor
  inhibition at 1 µM: 105%
Dopaminergic D3 receptor
  inhibition at 1 µM: 87%

## O=S(=O)(NCCCN1CCC(c2noc3cc(F)ccc23)CC1)c1cc2ccccc2s1 [Compound 345, N-[3-[4-(6-Fluoro-1,2-benzoxazol-3-yl)piperidin-1-yl]propyl]benzothiophene-2-sulphonamide]
[1]
  inhibition at 1 µM: 45%
[2]
  inhibition at 1 µM: 91%
[3]
  inhibition at 1 µM: 91%
Adrenergic α1 receptor
  α1 [%]: 102%
[4]
  inhibition at 1 µM: 93%
[5]
  inhibition at 1 µM: -10%
Dopaminergic D2 receptor
  inhibition at 1 µM: 109%
Dopaminergic D3 receptor
  inhibition at 1 µM: 100%

## Cc1[nH]c2ccc(Cl)cc2c1C1=CCN(CCNS(=O)(=O)c2ccc(F)cc2)CC1 [Compound 449, N-[2-[4-(5-Chloro-2-methyl-1H-indol-3-yl)-3,6-dihydro-2H-pyridin-1-yl]ethyl]-4-fluorobenzenesulphonamide]
[1]
  inhibition at 1 µM: 57%
[2]
  inhibition at 1 µM: 93%
[3]
  inhibition at 1 µM: 81%
Adrenergic α1 receptor
  α1 [%]: 12%
[4]
  inhibition at 1 µM: 76%
[5]
  inhibition at 1 µM: 21%
Dopaminergic D2 receptor
  inhibition at 1 µM: 31%
Dopaminergic D3 receptor
  inhibition at 1 µM: 34%

## N#Cc1ccc(S(=O)(=O)NCCCN2CCC(c3noc4cc(F)ccc34)CC2)cc1 [Compound 337, 4-Cyano-N-[3-[4-(6-fluoro-1,2-benzoxazol-3-yl)piperidin-1-yl]propyl]benzenesulphonamide]
[1]
  inhibition at 1 µM: 41%
[2]
  inhibition at 1 µM: 76%
[3]
  inhibition at 1 µM: 87%
Adrenergic α1 receptor
  α1 [%]: 93%
[4]
  inhibition at 1 µM: 102%
[5]
  inhibition at 1 µM: 35%
Dopaminergic D2 receptor
  inhibition at 1 µM: 59%
Dopaminergic D3 receptor
  inhibition at 1 µM: 79%

## O=S(=O)(NCCCCN1CCN(c2nsc3ccccc23)CC1)c1ccc(-c2ccccc2)cc1 [Compound 237, N-[4-[4-(1,2-Benzothiazol-3-yl)piperazin-1-yl]butyl]-4-phenylbenzenesulphonamide]
[1]
  inhibition at 1 µM: 51%
[2]
  inhibition at 1 µM: 89%
[3]
  inhibition at 1 µM: 64%
Adrenergic α1 receptor
  α1 [%]: 87%
[4]
  inhibition at 1 µM: 24%
[5]
  inhibition at 1 µM: -7%
Dopaminergic D2 receptor
  inhibition at 1 µM: 62%
Dopaminergic D3 receptor
  inhibition at 1 µM: 85%

## O=C1COc2c(cccc2N2CCN(CCCCNS(=O)(=O)c3ccc(F)cc3)CC2)N1 [Compound 428, 4-Fluoro-N-[4-[4-(3-oxo-4H-1,4-benzoxazin-8-yl)piperazin-1-yl]butyl]benzenesulphonamide]
[1]
  inhibition at 1 µM: 90%
[2]
  inhibition at 1 µM: 33%
[3]
  inhibition at 1 µM: 78%
Adrenergic α1 receptor
  α1 [%]: 72%
[4]
  inhibition at 1 µM: 30%
[5]
  inhibition at 1 µM: 23%
Dopaminergic D2 receptor
  inhibition at 1 µM: 78%
Dopaminergic D3 receptor
  inhibition at 1 µM: 104%

## O=S(=O)(NCCCN1CCN(c2nsc3ccccc23)CC1)c1ccc2cc(Cl)ccc2c1 [Compound 62, N-[3-[4-(1,2-Benzothiazol-3-yl)piperazin-1-yl]propyl]-6-chloro-naphthalene-2-sulphonamide]
[1]
  inhibition at 1 µM: 46%
[2]
  inhibition at 1 µM: 69%
[3]
  inhibition at 1 µM: 78%
Adrenergic α1 receptor
  α1 [%]: 61%
[4]
  inhibition at 1 µM: 101%
[5]
  inhibition at 1 µM: 15%
Dopaminergic D2 receptor
  inhibition at 1 µM: 92%
Dopaminergic D3 receptor
  inhibition at 1 µM: 63%

## O=S(=O)(NCCCCN1CCN(c2cccc3c2OCCO3)CC1)c1cc2ccc(Cl)cc2s1 [Compound 401, 6-Chloro-N-[4-[4-(2,3-dihydro-1,4-benzodioxin-5-yl)piperazin-1-yl]butyl]benzothiophene-2-sulphonamide]
[1]
  inhibition at 1 µM: 103%
[2]
  inhibition at 1 µM: 27%
[3]
  inhibition at 1 µM: 91%
Adrenergic α1 receptor
  α1 [%]: 90%
[4]
  inhibition at 1 µM: 79%
[5]
  inhibition at 1 µM: -8%
Dopaminergic D2 receptor
  inhibition at 1 µM: 84%
Dopaminergic D3 receptor
  inhibition at 1 µM: 95%

## O=S(=O)(NCCCCN1CCN(c2cccc3c2OCCO3)CC1)c1csc2ccccc12 [Compound 400, N-[4-[4-(2,3-Dihydro-1,4-benzodioxin-5-yl)piperazin-1-yl]butyl]benzothiophene-3-sulphonamide]
[1]
  inhibition at 1 µM: 100%
[2]
  inhibition at 1 µM: 9%
[3]
  inhibition at 1 µM: 95%
Adrenergic α1 receptor
  α1 [%]: 94%
[4]
  inhibition at 1 µM: 66%
[5]
  inhibition at 1 µM: 30%
Dopaminergic D2 receptor
  inhibition at 1 µM: 83%
Dopaminergic D3 receptor
  inhibition at 1 µM: 88%

Reference: patent publication US8822517B2, “Arylosulfonamides for the treatment of CNS diseases” (Adamed SP. Z O.O., priority 2010, dated 2014)
